The supplement of paper PMC13380429

Legend:
Details in all cases: 72 h
Caco-2 [1] = assay: cell viability relative to DMSO; higher = less toxic
Calu-3 [2] = assay: as above
HepG2 [3] = assay: as above
U2OS [4] = assay: as above
Vero E6 [5] = assay: as above
Caco-2 [6] = assay: relative viability EC50 (midpoint between 100% and the lowest measured viability); higher = less toxic
Calu-3 [7] = assay: as above
HepG2 [8] = assay: as above
U2OS [9] = assay: as above
Vero E6 [10] = assay: as above
Caco-2 [11] = assay: drug sensitivity score (DSS) for viability; higher = more toxic; extreme values may be limits of the assay
Calu-3 [12] = assay: as above
HepG2 [13] = assay: as above
U2OS [14] = assay: as above
Vero E6 [15] = assay: as above

SMILES	cell viability (Caco-2 [1]; 1 nM) [%]	cell viability (Caco-2 [1]; 10 nM) [%]	cell viability (Caco-2 [1]; 100 nM) [%]	cell viability (Caco-2 [1]; 1000 nM) [%]	cell viability (Caco-2 [1]; 10000 nM) [%]	cell viability (Calu-3 [2]; 1 nM) [%]	cell viability (Calu-3 [2]; 10 nM) [%]	cell viability (Calu-3 [2]; 100 nM) [%]	cell viability (Calu-3 [2]; 1000 nM) [%]	cell viability (Calu-3 [2]; 10000 nM) [%]	cell viability (HepG2 [3]; 1 nM) [%]	cell viability (HepG2 [3]; 10 nM) [%]	cell viability (HepG2 [3]; 100 nM) [%]	cell viability (HepG2 [3]; 1000 nM) [%]	cell viability (HepG2 [3]; 10000 nM) [%]	cell viability (U2OS [4]; 1 nM) [%]	cell viability (U2OS [4]; 10 nM) [%]	cell viability (U2OS [4]; 100 nM) [%]	cell viability (U2OS [4]; 1000 nM) [%]	cell viability (U2OS [4]; 10000 nM) [%]	cell viability (Vero E6 [5]; 1 nM) [%]	cell viability (Vero E6 [5]; 10 nM) [%]	cell viability (Vero E6 [5]; 100 nM) [%]	cell viability (Vero E6 [5]; 1000 nM) [%]	cell viability (Vero E6 [5]; 10000 nM) [%]	relative viability EC50 (Caco-2 [6]) [µM]	relative viability EC50 (Calu-3 [7]) [µM]	relative viability EC50 (HepG2 [8]) [µM]	relative viability EC50 (U2OS [9]) [µM]	relative viability EC50 (Vero E6 [10]) [µM]	drug sensitivity score (Caco-2 [11])	drug sensitivity score (Calu-3 [12])	drug sensitivity score (HepG2 [13])	drug sensitivity score (U2OS [14])	drug sensitivity score (Vero E6 [15])
CCc1nc(C)ccc1O [emoxipin]	95.1	99.6	98.1	98.6	90.9	105	111	104	96.8	105	110	108	97.4	99.6	108	102	101	106	97	103	98.1	102	97.3	92.7	93.2	> 10	> 10	> 10	> 10	> 10	0	0	0	0	0
COc1ccc2[nH]c(-c3ccccc3)c(CCNC(C)=O)c2c1 [2-phenylmelatonin]	98.8	105	93	98	82.6	96.5	94.9	99.3	106	102	104	99.5	101	101	105	102	101	97.6	105	98.1	101	99.9	106	98.8	93.7	> 10	> 10	> 10	> 10	> 10	0.6	0	0	0	0
CCCCCOC(=O)Nc1nc(=O)n([C@@H]2O[C@H](C)[C@@H](O)[C@H]2O)cc1F [capecitabine]	107	110	103	96.1	106	99	110	91.8	98.6	101	97	104	104	99.9	96.3	96.7	103	94.3	92.6	101	102	101	99.7	95	95.6	> 10	> 10	> 10	> 10	> 10	0	0	0	0	0
CN[C@@H](C)C(=O)N[C@H](C(=O)N1CCC[C@H]1C(=O)Nc1snnc1-c1ccccc1)C1CCCCC1 [GDC-0152]	98.4	104	98.9	102	92.2	104	106	97.4	87.9	84.9	105	105	99.6	97.4	96	98.1	109	95.7	100	94.3	97	98.9	102	103	106	> 10	> 10	> 10	> 10	> 10	0	1.1	0	0	0
CC(C)[C@@H]1C(=O)N(S(C)(=O)=O)[C@@H]2CCN(C(=O)/C=C/CN3CCCCC3)[C@H]21	110	94.3	94.4	97.6	94.4	95.9	95.4	102	103	100	92.2	92.6	104	104	85.3	101	98.8	103	99.1	101	97.2	102	93.4	98.6	91.4	> 10	> 10	> 10	> 10	> 10	0	0	0.1	0	0
O=C(Nc1cnccc1Cl)N1CCN(Cc2ccc3c(c2)OC(F)(F)O3)CC1	97.7	101	94	90.3	81	92.4	100	95.2	99	92.8	95.6	100	100	91.6	39.3	99.8	97.5	99.1	98.8	94	108	103	103	100	92.4	> 10	> 10	2.06	> 10	> 10	1	0	4.7	0	0
NS(=O)(=O)NCCNc1nonc1/C(=N/O)Nc1ccc(F)c(Br)c1	89.9	100	98	102	96.4	100	96.2	93.7	95	95.4	100	96	103	94.8	102	93.6	102	96.2	102	95	100	98.9	98.2	94.5	107	> 10	> 10	> 10	> 10	> 10	0	0	0	0	0
